{"source": "patent US8563259B2", "about": "“Complement-mediated thrombophilic assay” (The Trustees of the University of Pennsylvania, priority 2007, dated 2013)", "test_system": "TF expression induced by activated complement in normal primary cells (monocytes or neutrophils)", "test": "modified PT (mPT) assay with supernatant of healthy primary cells stimulated with patient serum, with or without complement inhibitor", "type": "cell-based, human", "source_text": "To test serum for complement activating activity, serum was obtained from patients diagnosed with various disorders. Serum was obtained from patients diagnosed with: antiphospholipid syndrome (APS; n=26), systemic lupus erythymatosus (SLE; n=9), rheumatoid arthritis (n=12), sepsis (n=6), metastatic cancer (n=8) and inherited hypercoagulation (n=9). Serum was also obtained from healthy individuals (n=22).\nFreshly obtained primary cells (monocytes or neutrophils) obtained from healthy donors were suspended in phosphate buffered saline (PBS). In parallel, the cells were stimulated with patient serum and with patient serum that was pre-incubated for 30 minutes with either 15 μM Compstatin or 10 μM C5aR antagonist to inhibit complement. The cells were incubated with serum for approximately 2 to 2.5 hours at 37° C. Subsequently, supernatant from the serum-incubated cells was obtained by centrifugation at 1000×g for 10 minutes. The supernatant was then assessed in a modified PT assay.\nIn a standard PT assay, 100 μl patient plasma is mixed with 200 μl commercial thromboplastin (International Sensitivity Index (ISI) 1.0 or ISI 1.9), and time of clotting is assessed by measuring in seconds the time required for clot formation after thromboplastin is added. In the modified PT (mPT) assay, 100 μl platelet-poor plasma (PPP) from a healthy subject was used and about 120-130 μl of the commercial thromboplastin (also called tissue factor) was replaced with PBS (the total volume of clotting reaction remains stable, at 300 μl) in order to obtain a technical prolongation of the clotting time from about 12-13 seconds to about 32-37 seconds. To test the effect of the test serum on TF expression of healthy primary blood cells, the about 120-130 μl PBS was replaced with about 120-130 μl of supernatant from the primary cells stimulated with test serum. All mPT assays were performed independently by two experienced physicians.\nWhen complement is activated in the test serum, the use of 120-130 μl supernatant in the mPT test reduces the clotting time from about 32-37 sec to about 18-20 seconds. This reduction in clotting time occurs because TF expression is induced in the normal primary cells by the activated complement. When the activated complement in the test serum has been inhibited (e.g., with Compstatin or C5aR antagonist), TF expression is not induced by activated complement in normal primary cells and the mPT remains unchanged (about 32 to about 37 seconds)."}
{"smiles": "CC[C@H](C)[C@H](N)C(=O)N[C@H]1CSSC[C@@H](C(=O)N[C@H](C(N)=O)[C@@H](C)O)NC(=O)[C@H](CCCN=C(N)N)NC(=O)[C@H](Cc2cnc[nH]2)NC(=O)[C@H](Cc2cnc[nH]2)NC(=O)CNC(=O)[C@H](Cc2c[nH]c3ccccc23)NC(=O)[C@H](CC(=O)O)NC(=O)[C@H](CCC(N)=O)NC(=O)[C@H](C(C)C)NC(=O)[C@H](C(C)C)NC1=O", "note": "[Compstatin, Ile-Cys-Val-Val-Gln-Asp-Trp-Gly-His-His-Arg-Cys-Thr]", "values": [{"measurement": "sensitivity of the mPT test after Compstatin-mediated inhibition of complement (pro-coagulant activity completely abolished)", "setting": "APS and SLE patients", "result": 100, "unit": "%"}, {"measurement": "Clotting time", "setting": "APS serum (n = 26), serum pre-incubated 30 minutes with 15 μM Compstatin or 10 μM C5aR antagonist", "result": "31.11 ± 0.26", "unit": "s"}, {"measurement": "Clotting time", "setting": "Acute sepsis serum (n = 6), serum pre-incubated 30 minutes with 15 μM Compstatin or 10 μM C5aR antagonist", "result": "28.97 ± 0.80", "unit": "s"}, {"measurement": "Clotting time", "setting": "Healthy donor serum (n = 22), serum pre-incubated 30 minutes with 15 μM Compstatin or 10 μM C5aR antagonist", "result": "31.19 ± 0.16", "unit": "s"}, {"measurement": "Clotting time", "setting": "Inherited hypercoagulation serum (n = 9), serum pre-incubated 30 minutes with 15 μM Compstatin", "result": "29.01 ± 1.08", "unit": "s"}, {"measurement": "Clotting time", "setting": "Metastatic cancer serum (n = 8), serum pre-incubated 30 minutes with 15 μM Compstatin", "result": "26.07 ± 1.21", "unit": "s"}, {"measurement": "Clotting time", "setting": "Rheumatoid arthritis serum (n = 12), serum pre-incubated 30 minutes with 15 μM Compstatin", "result": "30.26 ± 0.81", "unit": "s"}, {"measurement": "Clotting time", "setting": "SLE serum (n = 9), serum pre-incubated 30 minutes with 15 μM Compstatin or 10 μM C5aR antagonist", "result": "31.26 ± 0.17", "unit": "s"}, {"measurement": "difference in clotting time before and after inhibition in acute sepsis, as share of the time difference for either APS or SLE serum", "setting": "acute sepsis serum versus APS or SLE serum", "result": "about 30%"}, {"measurement": "effect of treatment on clotting time", "setting": "sera from septic patients", "result": "partial inhibition"}]}
